From PubChem BioAssay (NCI)
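Cells were grown in 96-well plates and exposed to each compound for 48 hours at five concentrations; endpoints were interpolated linearly between bracketing concentrations, or set to the highest concentration if not reached. Definition used: TGI = concentration required for complete inhibition of growth.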

Tests used:
Experiment in all cases: growth of human tumour cells (NCI), 48 h
A549 NSCLC = tested on: A549 NSCLC
ACHN renal = tested on: ACHN renal
CAKI-1 renal = tested on: CAKI-1 renal
HCT-116 colon = tested on: HCT-116 colon
HCT-15 colon = tested on: HCT-15 colon
HT29 colon = tested on: HT29 colon
OVCAR-8 ovarian = tested on: OVCAR-8 ovarian
RXF 393 renal = tested on: RXF 393 renal
SF-295 CNS = tested on: SF-295 CNS
SK-OV-3 ovarian = tested on: SK-OV-3 ovarian
SN12C renal = tested on: SN12C renal
SNB-19 CNS = tested on: SNB-19 CNS
UO-31 renal = tested on: UO-31 renal
MDA-MB-231 breast = tested on: MDA-MB-231 breast
MDA-MB-435 = tested on: MDA-MB-435
MDA-N = tested on: MDA-N
SF-539 CNS = tested on: SF-539 CNS
SK-MEL-28 melanoma = tested on: SK-MEL-28 melanoma
PC-3 prostate = tested on: PC-3 prostate
SK-MEL-2 melanoma = tested on: SK-MEL-2 melanoma

SMILES	TGI (A549 NSCLC) [µM]	TGI (ACHN renal) [µM]	TGI (CAKI-1 renal) [µM]	TGI (HCT-116 colon) [µM]	TGI (HCT-15 colon) [µM]	TGI (HT29 colon) [µM]	TGI (OVCAR-8 ovarian) [µM]	TGI (RXF 393 renal) [µM]	TGI (SF-295 CNS) [µM]	TGI (SK-OV-3 ovarian) [µM]	TGI (SN12C renal) [µM]	TGI (SNB-19 CNS) [µM]	TGI (UO-31 renal) [µM]	TGI (MDA-MB-231 breast) [µM]	TGI (MDA-MB-435) [µM]	TGI (MDA-N) [µM]	TGI (SF-539 CNS) [µM]	TGI (SK-MEL-28 melanoma) [µM]	TGI (PC-3 prostate) [µM]	TGI (SK-MEL-2 melanoma) [µM]
O=C(Nc1ccc([N+](=O)[O-])cc1[N+](=O)[O-])C(=O)C(C(=O)c1ccc(Cl)c(Cl)c1)C1OC(=O)c2ccccc21 (stereo not drawn)	73.7	> 100	> 100	38.4	76.7	71.1	45.5	24.8	40.7	82.5	85	66.7	80.9	–	–	–	–	–	–	–
CCCCCCCCCC(=O)NC(CCC(=O)N(CCNC(=O)c1nc(-c2ccccc2)oc1-c1ccccc1)Cc1ccccc1)C(=O)O (stereo not drawn)	31.9	38	31.2	32.5	29.6	32.3	35.5	36.8	32.8	30.7	37.6	31.8	28.5	40.6	38.3	36.4	41.7	37.9	–	–
CCOC(=O)[C@@H]1ON2O[C@@H](OC3CCCCC3c3ccccc3)C[C@H]3OC(=O)[C@@H]1C32 (stereo partly drawn)	> 100	> 100	> 100	> 100	> 100	> 100	> 100	> 100	> 100	> 100	> 100	–	> 100	> 100	> 100	> 100	> 100	–	–	–
COc1ccc(C[C@@H](C(=O)O[C@H](C)[C@H](NC(=O)[C@@H](CC(C)C)N(C)C(=O)C2CCCN2C(=O)[C@H](C)O)C(=O)N2CCCCNC(=O)[C@@H](C)C(=O)[C@H](C(C)C)OC(=O)C[C@H](O)[C@H]2CC(C)C)N(C)C(C)=O)cc1 (stereo partly drawn)	> 50	> 50	41.6	> 50	> 50	25.4	> 50	20.6	> 50	> 50	> 50	> 50	> 50	34.2	> 50	–	17.1	22.6	> 50	> 50
CC(C)=CCC/C(C)=C/Cc1c(O)c(C)cc2c1[nH]c1cc(O)ccc12	> 25	> 25	–	> 25	> 25	> 25	> 25	> 25	–	> 25	> 25	> 25	> 25	–	–	–	> 25	> 25	–	> 25
C=CC(=O)Nc1ccccc1CC(c1c[nH]c2ccccc12)c1c[nH]c2ccccc12	56.7	–	37.7	–	38.7	37.5	33.6	–	49.1	45.7	30.6	31.8	31.7	–	–	–	36.6	32.1	–	32.7
O=NN1CCN=C1c1ccc([N+](=O)[O-])cc1	> 100	> 100	> 100	> 100	> 100	> 100	> 100	> 100	> 100	> 100	> 100	> 100	> 100	–	–	–	> 100	> 100	–	–
Clc1ccc(C(Cc2ccccc2)c2c(Cl)nc(N3CCNCC3)nc2Cl)cc1 (stereo not drawn)	30.4	29.9	18	20.5	14.5	6.27	27.3	–	36	33.2	28.8	28.6	27.2	26.9	32	–	28.8	26.6	28	33.2
CCOC(=O)C1=C(O)C(=O)c2ccoc2C1=O	> 100	> 100	> 100	> 100	> 100	> 100	> 100	> 100	> 100	> 100	> 100	> 100	> 100	–	–	–	> 100	> 100	–	> 100
O=C(/C=C/c1ccccc1)c1cc(C(=O)/C=C/c2ccccc2)c(O)cc1O	> 100	> 100	> 100	> 100	> 100	> 100	> 100	–	–	> 100	> 100	> 100	> 100	–	> 100	> 100	> 100	> 100	> 100	> 100
CNn1c(-c2ccc(C)cc2)n[nH]c1=O	> 100	> 100	> 100	> 100	> 100	> 100	> 100	> 100	> 100	> 100	> 100	> 100	> 100	> 100	> 100	–	> 100	–	> 100	> 100
COc1ccc(C2Oc3c(cccc3-c3c(-c4ccc(O)cc4)oc4cc(O)cc(O)c4c3=O)C(=O)C2O)cc1O (stereo not drawn)	> 100	> 100	–	> 100	> 100	> 100	> 100	–	> 100	> 100	> 100	> 100	> 100	> 100	> 100	–	–	> 100	> 100	–
COc1ccc(NC(=O)c2oc3cc(O)ccc3c(=O)c2C)c([N+](=O)[O-])c1	> 100	> 100	> 100	> 100	> 100	> 100	> 100	> 100	> 100	> 100	> 100	> 100	> 100	–	–	–	> 100	> 100	–	> 100
CCCCCCCCCCCCCCCCCCOCC(C[N+]1(C)CCC(O)CC1)OCC (stereo not drawn)	32.9	–	21.1	27.6	–	14.9	41.4	–	17.9	8.22	15.4	28.3	27.5	–	–	–	32.8	33.5	–	20.9
O=C(O/N=c1/ccc(=O)/c(=N\OC(=O)c2ccccc2)c1=O)c1ccccc1	> 100	> 100	> 100	> 100	> 100	> 100	> 100	> 100	> 100	> 100	> 100	> 100	> 100	–	> 100	> 100	> 100	> 100	> 100	–
CC(Cc1ccccc1)N(C)Cc1nc(C2CCC([N+](=O)[O-])O2)no1 (stereo not drawn)	27.4	–	–	25.3	7.07	11.5	59.1	37.6	20.9	84	11	25.2	20.4	9.93	20.4	–	8.38	25.6	–	–
O=C1C[C@@H]2[C@@H](c3ccccc3)[C@@H]3C(=O)c4ccccc4NC(=O)[C@H]3[C@]2(O)c2ccccc2N1	> 100	> 100	–	> 100	> 100	> 100	> 100	> 100	> 100	–	> 100	> 100	> 100	–	–	–	–	> 100	–	> 100
CCOC(=O)c1csc(C(CSCc2ccc(OC)cc2)N2C(=O)c3ccccc3C2=O)n1 (stereo not drawn)	> 100	> 100	> 100	> 100	> 100	> 100	> 100	> 100	> 100	> 100	> 100	> 100	> 100	> 100	> 100	–	> 100	> 100	> 100	–
NCCCC(N=Cc1nc(-c2ccccc2)oc1O)C(=O)O (stereo not drawn)	> 100	> 100	–	> 100	> 100	> 100	> 100	> 100	> 100	> 100	> 100	> 100	> 100	–	–	–	> 100	> 100	–	> 100
CC1(C2COC(=O)C2)SCCCS1 (stereo not drawn)	> 100	> 100	> 100	> 100	> 100	> 100	> 100	> 100	> 100	> 100	> 100	> 100	28.1	–	–	–	> 100	> 100	–	> 100
O=c1[nH]nc(-c2ccccc2)n1-c1cccc([N+](=O)[O-])c1	> 100	> 100	> 100	> 100	> 100	> 100	> 100	> 100	> 100	> 100	> 100	> 100	> 100	> 100	> 100	> 100	> 100	> 100	–	> 100
CC(C)(C)[Si](C)(C)OCCc1ccccc1C1CC2(S(=O)(=O)c3ccccc3)ON1CC2S(=O)(=O)c1ccccc1 (stereo not drawn)	> 100	> 100	–	> 100	–	> 100	> 100	> 100	> 100	> 100	> 100	> 100	> 100	> 100	> 100	> 100	> 100	> 100	–	> 100
CC(C)(C)n1c(=O)n(-c2ccccc2)n(C(C)(C)C)c1=O	> 100	> 100	> 100	> 100	> 100	> 100	> 100	> 100	> 100	> 100	> 100	> 100	> 100	> 100	–	> 100	> 100	> 100	> 100	> 100
CC(C)OC(=O)C1(C(C)C)CCc2ccc(C(=O)CCC(=O)O)cc21 (stereo not drawn)	> 100	> 100	> 100	> 100	> 100	> 100	> 100	> 100	> 100	> 100	> 100	> 100	> 100	> 100	–	> 100	> 100	> 100	> 100	> 100
CC(C)(C)C1=CC(=C2C=Cc3cc(O)ccc3O2)C=C(C(C)(C)C)C1=O	3.04	3.06	3.11	2.43	5.51	3.59	3.79	3.16	3.45	4.09	3.02	3.3	2.5	3.18	3.55	–	3.4	3.64	3.01	3.09
CCCCCCc1cc2cc(-c3cn4c(n3)sc3ccccc34)c(=O)oc2cc1O	> 100	> 100	> 100	> 100	> 100	> 100	> 100	> 100	> 100	> 100	> 100	> 100	> 100	> 100	> 100	–	> 100	> 100	> 100	> 100
